Measurements from PubChem BioAssay (NCI).
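GI50 marks 50% less growth. TGI is the concentration that stops growth completely.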

Tests used:
Assay in all cases: NCI anticancer screen, dose series, 384-well format
786-0 renal = test system: 786-0 renal
A498 renal = test system: A498 renal
A549 NSCLC = test system: A549 NSCLC
ACHN renal = test system: ACHN renal
BT-549 breast = test system: BT-549 breast
CAKI-1 renal = test system: CAKI-1 renal
CCRF-CEM leukemia = test system: CCRF-CEM leukemia
COLO 205 colon = test system: COLO 205 colon
DU-145 prostate = test system: DU-145 prostate
EKVX NSCLC = test system: EKVX NSCLC
HCC-2998 colon = test system: HCC-2998 colon
HCT-15 colon = test system: HCT-15 colon
HL-60(TB) leukemia = test system: HL-60(TB) leukemia
HOP-62 NSCLC = test system: HOP-62 NSCLC
HOP-92 NSCLC = test system: HOP-92 NSCLC
HS 578T breast = test system: HS 578T breast
HT29 colon = test system: HT29 colon
IGROV1 ovarian = test system: IGROV1 ovarian
K-562 leukemia = test system: K-562 leukemia
KM12 colon = test system: KM12 colon
LOX IMVI melanoma = test system: LOX IMVI melanoma
M14 melanoma = test system: M14 melanoma
MALME-3M melanoma = test system: MALME-3M melanoma
MCF7 breast = test system: MCF7 breast
MDA-MB-231 breast = test system: MDA-MB-231 breast
MDA-MB-435 melanoma = test system: MDA-MB-435 melanoma
MDA-MB-468 breast = test system: MDA-MB-468 breast
MOLT-4 leukemia = test system: MOLT-4 leukemia
NCI-H226 lung = test system: NCI-H226 lung
NCI-H23 lung = test system: NCI-H23 lung
NCI-H322M lung = test system: NCI-H322M lung
NCI-H460 NSCLC = test system: NCI-H460 NSCLC
NCI-H522 lung = test system: NCI-H522 lung
NCI/ADR-RES ovarian = test system: NCI/ADR-RES ovarian
OVCAR-3 ovarian = test system: OVCAR-3 ovarian
OVCAR-4 ovarian = test system: OVCAR-4 ovarian
OVCAR-5 ovarian = test system: OVCAR-5 ovarian
OVCAR-8 ovarian = test system: OVCAR-8 ovarian
PC-3 prostate = test system: PC-3 prostate
RPMI-8226 leukemia = test system: RPMI-8226 leukemia
RXF 393 renal = test system: RXF 393 renal
SF-268 CNS = test system: SF-268 CNS
SF-295 CNS = test system: SF-295 CNS
SF-539 CNS = test system: SF-539 CNS
SK-MEL-28 melanoma = test system: SK-MEL-28 melanoma
SK-MEL-5 melanoma = test system: SK-MEL-5 melanoma
SK-OV-3 ovarian = test system: SK-OV-3 ovarian
SN12C renal = test system: SN12C renal
SNB-19 CNS = test system: SNB-19 CNS
SNB-75 CNS = test system: SNB-75 CNS
SR leukemia = test system: SR leukemia
SW-620 colon = test system: SW-620 colon
T-47D breast = test system: T-47D breast
TK-10 renal = test system: TK-10 renal
UACC-257 melanoma = test system: UACC-257 melanoma
UACC-62 melanoma = test system: UACC-62 melanoma
UO-31 renal = test system: UO-31 renal

CC(C)(O)c1coc(S(=O)(=O)/N=C(\O)Nc2c3c(cc4c2CCC4)CCC3)c1
GI50 ([…]-0 renal): > 100 µM
TGI (786-0 renal): > 100 µM
GI50 (A498 renal): > 100 µM
TGI (A498 renal): > 100 µM
GI50 (A549 NSCLC): > 100 µM
TGI (A549 NSCLC): > 100 µM
GI50 (ACHN renal): > 100 µM
TGI (ACHN renal): > 100 µM
GI50 (BT-549 breast): > 100 µM
TGI (BT-549 breast): > 100 µM
GI50 (CAKI-1 renal): > 100 µM
TGI (CAKI-1 renal): > 100 µM
GI50 (CCRF-CEM leukemia): > 100 µM
TGI (CCRF-CEM leukemia): > 100 µM
GI50 (COLO 205 colon): > 100 µM
TGI (COLO 205 colon): > 100 µM
GI50 (DU-145 prostate): > 100 µM
TGI (DU-145 prostate): > 100 µM
GI50 (EKVX NSCLC): > 100 µM
TGI (EKVX NSCLC): > 100 µM
GI50 (HCC-2998 colon): > 100 µM
TGI (HCC-2998 colon): > 100 µM
GI50 (HCT-15 colon): > 100 µM
TGI (HCT-15 colon): > 100 µM
GI50 (HL-60(TB) leukemia): > 100 µM
TGI (HL-60(TB) leukemia): > 100 µM
GI50 (HOP-62 NSCLC): > 100 µM
TGI (HOP-62 NSCLC): > 100 µM
GI50 (HOP-92 NSCLC): > 100 µM
TGI (HOP-92 NSCLC): > 100 µM
GI50 (HS 578T breast): > 100 µM
TGI (HS 578T breast): > 100 µM
GI50 (HT29 colon): > 100 µM
TGI (HT29 colon): > 100 µM
GI50 (IGROV1 ovarian): > 100 µM
TGI (IGROV1 ovarian): > 100 µM
GI50 (K-562 leukemia): > 100 µM
TGI (K-562 leukemia): > 100 µM
GI50 (KM12 colon): > 100 µM
TGI (KM12 colon): > 100 µM
GI50 (LOX IMVI melanoma): > 100 µM
TGI (LOX IMVI melanoma): > 100 µM
GI50 (M14 melanoma): > 100 µM
TGI (M14 melanoma): > 100 µM
GI50 (MALME-3M melanoma): > 100 µM
TGI (MALME-3M melanoma): > 100 µM
GI50 (MCF7 breast): > 100 µM
TGI (MCF7 breast): > 100 µM
GI50 (MDA-MB-231 breast): > 100 µM
TGI (MDA-MB-231 breast): > 100 µM
GI50 (MDA-MB-435 melanoma): > 100 µM
TGI (MDA-MB-435 melanoma): > 100 µM
GI50 (MDA-MB-468 breast): > 100 µM
TGI (MDA-MB-468 breast): > 100 µM
GI50 (MOLT-4 leukemia): > 100 µM
TGI (MOLT-4 leukemia): > 100 µM
GI50 (NCI-H226 lung): > 100 µM
TGI (NCI-H226 lung): > 100 µM
GI50 (NCI-H23 lung): > 100 µM
TGI (NCI-H23 lung): > 100 µM
GI50 (NCI-H322M lung): > 100 µM
TGI (NCI-H322M lung): > 100 µM
GI50 (NCI-H460 NSCLC): > 100 µM
TGI (NCI-H460 NSCLC): > 100 µM
GI50 (NCI-H522 lung): > 100 µM
TGI (NCI-H522 lung): > 100 µM
GI50 (NCI/ADR-RES ovarian): > 100 µM
TGI (NCI/ADR-RES ovarian): > 100 µM
GI50 (OVCAR-3 ovarian): > 100 µM
TGI (OVCAR-3 ovarian): > 100 µM
GI50 (OVCAR-4 ovarian): > 100 µM
TGI (OVCAR-4 ovarian): > 100 µM
GI50 (OVCAR-5 ovarian): > 100 µM
TGI (OVCAR-5 ovarian): > 100 µM
GI50 (OVCAR-8 ovarian): > 100 µM
TGI (OVCAR-8 ovarian): > 100 µM
GI50 (PC-3 prostate): > 100 µM
TGI (PC-3 prostate): > 100 µM
GI50 (RPMI-8226 leukemia): > 100 µM
TGI (RPMI-8226 leukemia): > 100 µM
GI50 (RXF 393 renal): > 100 µM
TGI (RXF 393 renal): > 100 µM
GI50 (SF-268 CNS): > 100 µM
TGI (SF-268 CNS): > 100 µM
GI50 (SF-295 CNS): > 100 µM
TGI (SF-295 CNS): > 100 µM
GI50 (SF-539 CNS): > 100 µM
TGI (SF-539 CNS): > 100 µM
GI50 (SK-MEL-28 melanoma): > 100 µM
TGI (SK-MEL-28 melanoma): > 100 µM
GI50 (SK-MEL-5 melanoma): > 100 µM
TGI (SK-MEL-5 melanoma): > 100 µM
GI50 (SK-OV-3 ovarian): > 100 µM
TGI (SK-OV-3 ovarian): > 100 µM
GI50 (SN12C renal): > 100 µM
TGI (SN12C renal): > 100 µM
GI50 (SNB-19 CNS): > 100 µM
TGI (SNB-19 CNS): > 100 µM
GI50 (SNB-75 CNS): > 100 µM
TGI (SNB-75 CNS): > 100 µM
GI50 (SR leukemia): > 100 µM
TGI (SR leukemia): > 100 µM
GI50 (SW-620 colon): > 100 µM
TGI (SW-620 colon): > 100 µM
GI50 (T-47D breast): > 100 µM
TGI (T-47D breast): > 100 µM
GI50 (TK-10 renal): > 100 µM
TGI (TK-10 renal): > 100 µM
GI50 (UACC-257 melanoma): > 100 µM
TGI (UACC-257 melanoma): > 100 µM
GI50 (UACC-62 melanoma): > 100 µM
TGI (UACC-62 melanoma): > 100 µM
GI50 (UO-31 renal): > 100 µM
TGI (UO-31 renal): > 100 µM
